Consider 20 molecules from US11111214B2 (priority 2013, dated 2021).

Experiment [1] has as its target T1, recombinant human mu (MOR) opioid receptor (Homo sapiens, UniProt P35372).
T1 construct: expressed in transfected cells; host or cells: CHO-K1 cell membranes
The experiment in a line: biochemical. Format: binding. The note with it: for inhibition at 10 µM: read-out: Mu receptor % inhibition at single concentration, % inhibition @ 10 μM.

For experiment [2], the target named is T2, KOR (kappa opioid receptor) (Homo sapiens, UniProt P41145).
T2 construct: expressed in transfected cells; host or cells: CHO-K1 cells stably expressing KOR
In words: cell-based.

The target in experiment [3] is T3, recombinant human kappa (KOR) opioid receptor (Homo sapiens, UniProt P41145).
T3 construct: expressed in transfected cells; host or cells: CHO-K1 cell membranes
In words: biochemical. Format: binding.

T3 sequence (P41145 whole entry): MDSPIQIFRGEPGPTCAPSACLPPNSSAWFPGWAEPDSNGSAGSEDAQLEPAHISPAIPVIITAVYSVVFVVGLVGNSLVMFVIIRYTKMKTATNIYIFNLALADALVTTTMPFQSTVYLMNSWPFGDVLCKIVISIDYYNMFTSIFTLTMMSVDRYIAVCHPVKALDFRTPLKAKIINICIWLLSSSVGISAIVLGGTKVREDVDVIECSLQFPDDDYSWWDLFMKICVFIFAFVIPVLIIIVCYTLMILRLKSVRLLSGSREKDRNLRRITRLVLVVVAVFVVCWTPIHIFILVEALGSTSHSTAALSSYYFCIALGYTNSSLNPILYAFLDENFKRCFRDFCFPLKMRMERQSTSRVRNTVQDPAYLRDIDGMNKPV
T2 sequence (P41145 whole entry): as above
T1 sequence (P35372 whole entry): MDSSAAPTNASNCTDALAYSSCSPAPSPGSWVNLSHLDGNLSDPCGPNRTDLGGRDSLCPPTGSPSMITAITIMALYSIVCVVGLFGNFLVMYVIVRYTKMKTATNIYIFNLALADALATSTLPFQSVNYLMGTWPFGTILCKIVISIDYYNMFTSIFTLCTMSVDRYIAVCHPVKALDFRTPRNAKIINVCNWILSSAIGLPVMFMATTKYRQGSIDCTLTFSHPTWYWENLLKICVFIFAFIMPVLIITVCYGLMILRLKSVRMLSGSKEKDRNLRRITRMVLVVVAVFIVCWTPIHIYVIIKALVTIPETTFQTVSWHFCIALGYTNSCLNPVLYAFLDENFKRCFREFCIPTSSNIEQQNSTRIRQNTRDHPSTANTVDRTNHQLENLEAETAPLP

In the case of `COCCOCCOCCOCCOCCO[C@H]1CCN(C[C@H](c2ccccc2)N(C)C(=O)Cc2ccc(Cl)c(Cl)c2)C1` [compound 7, 2-(3,4-Dichlorophenyl)-N-methyl-N-{(1S)-2-[(3S)-3-(2,5,8,11,14-pentaoxahexadecan-16-yloxy)pyrrolidin-1-yl]-1-phenylethyl}acetamide], in experiment [1], the IC50 amounted to 15600 nM and the inhibition at 10 µM amounted to 68.6%. Besides, the concentration for a half-maximal effect (EC50) in experiment [2] is 9 nM. For the same molecule, in experiment [3], the IC50 is 298 nM and the Ki was 68.8 nM.

For `COCCOCCOCCOCCOCCO[C@H]1CCN(C[C@H](c2ccccc2)N(C)C(=O)CNc2ccccc2)C1` [compound 8, N-Methyl-N-{(1S)-2-[(3S)-3-(2,5,8,11,14-pentaoxahexadecan-16-yloxy)pyrrolidin-1-yl]-1-phenylethyl}-N^2-phenylglycinamide], in experiment [1], the inhibition at 10 µM turned out to be 47.5%. The molecule further displayed an EC50 in experiment [2] of 74.7 nM. Besides, in experiment [3], the IC50 amounted to 1480 nM and the Ki is 342 nM.

With `COCCOCCOCCOCCOCCO[C@H]1CCN(C[C@H](c2ccccc2)N(C)C(=O)C(c2ccccc2)c2ccccc2)C1` [compound 9, N-Methyl-N-{(1S)-2-[(3S)-3-(2,5,8,11,14-pentaoxahexadecan-16-yloxy)pyrrolidin-1-yl]-1-phenylethyl}-2,2-diphenylacetamide], the inhibition at 10 µM in experiment [1] came to 36.9%. This molecule displayed an EC50 in experiment [2] of 178 nM. Further, in experiment [3], the IC50 was found to be 8970 nM and the inhibitory constant (Ki) turned out to be 2070 nM.

Turning to `COCCOCC(=O)Nc1cccc([C@@H](CN2CC[C@H](O)C2)N(C)C(=O)C(c2ccccc2)c2ccccc2)c1` [compound 11, N-[(1S)-2-[(3S)-3-Hydroxypyrrolidin-1-yl]-1-(3-{[(2-methoxyethoxy)acetyl]amino}phenyl)ethyl]-N-methyl-2,2-diphenylacetamide], the inhibition at 10 µM in experiment [1] stood at 45.2%. Besides, a half-maximal effect in experiment [2] (EC50) was put at 5.02 nM. Moreover, in experiment [3], the IC50 came to 58.1 nM and the inhibition constant (Ki) stood at 13.4 nM.

As to `COCCOCCOCCOCCOCCOCC(=O)Nc1cccc([C@@H](CN2CCCC2)N(C)C(=O)C(c2ccccc2)c2ccccc2)c1` [compound 12, N-{3-[(1S)-1-[(Diphenylacetyl)(methyl)amino]-2-(pyrrolidin-1-yl)ethyl]phenyl}-2,5,8,11,14,17-hexaoxanonadecan-19-amide], in experiment [1], the IC50 is 53300 nM and the inhibition at 10 µM turned out to be 46.5%. The same molecule yielded a concentration giving a half-maximal response (EC50) in experiment [2] of 36.1 nM. In addition, in experiment [3], the 50% inhibitory concentration (IC50) came out at 849 nM and the Ki is 196 nM.

Regarding `COCCOCCOCCOCCOCCOc1ccc(CC(=O)N(C)[C@H](CN2CCCC2)c2ccccc2)cc1` [compound 13, N-Methyl-2-[4-(2,5,8, 11, 14-pentaoxahexadecan-16-yloxy)phenyl]-N-[(1S)-1-phenyl-2-(pyrrolidin-1-yl)ethyl]acetamide], the inhibition at 10 µM in experiment [1] was determined as 69.9%. In experiment [3], the concentration for half-maximal inhibition (IC50) was found to be 1320 nM and the inhibition constant (Ki) was 305 nM.

`CN(C(=O)Cc1ccc(Cl)c(Cl)c1)[C@H](CN1CCCC1)c1cccc(NS(C)(=O)=O)c1` [compound 14, 2-(3,4-dichlorophenyl)-N-methyl-N-[(1S)-1-{3-[(methylsulfonyl)amino]phenyl}-2-(pyrrolidin-1-yl)ethyl]acetamide]: in experiment [1], the inhibition at 10 µM stood at 99.3%. The EC50 in experiment [2] worked out at 0.05 nM. For the same molecule, in experiment [3], the IC50 was found to be 0.34 nM and the inhibition constant (Ki) was found to be 0.08 nM.

In the case of `COCCOCCOCCOCCOCCNC(=O)Nc1cccc([C@@H](CN2CCCC2)N(C)C(=O)Cc2ccc(Cl)c(Cl)c2)c1` [compound 15, 2-(3,4-dichlorophenyl)-N-methyl-N-[(1S)-1-{3-[(2,5,8,11,14-pentaoxahexadecan-16-ylcarbamoyl)amino]phenyl}-2-(pyrrolidin-1-yl)ethyl]acetamide], the inhibition at 10 µM in experiment [1] was 84.1%. In experiment [2], this molecule showed an EC50 of 0.42 nM. In experiment [3], the IC50 was determined as 2.33 nM and the Ki was found to be 0.54 nM.

In the case of `COCCOCCOCCOCCOCCNC(=O)Nc1cccc([C@@H](CN2CCCC2)N(C)C(=O)C(c2ccc(Cl)cc2)c2ccc(Cl)cc2)c1` [compound 16, 2,2-Bis(4-chlorophenyl)-N-methyl-N-[(1S)-1-{3-[(2,5,8,11,14-pentaoxahexadecan-16-ylcarbamoyl)amino]phenyl}-2-(pyrrolidin-1-yl)ethyl]acetamide], in experiment [1], the inhibition at 10 µM turned out to be 27.1%. Also, the 50% effective concentration (EC50) in experiment [2] was found to be 15.1 nM. Further, in experiment [3], the IC50 stood at 62.7 nM and the inhibition constant Ki worked out at 14.5 nM.

Take `COCCOCCOCCO[C@H]1CCN(C[C@H](c2cccc(NS(C)(=O)=O)c2)N(C)C(=O)Cc2ccc(Cl)c(Cl)c2)C1` [compound 17, 2-(3,4-dichlorophenyl)-N-[(1S)-2-[(3S)-3-{2-[2-(2-methoxyethoxy)ethoxy]ethoxy}pyrrolidin-1-yl]-1-{3-[(methylsulfonyl)amino]phenyl}ethyl]-N-methylacetamide]: the inhibition at 10 µM in experiment [1] stood at 81.9%. In experiment [2], this molecule returned a concentration for a half-maximal effect (EC50) of 67.3 nM. In addition, in experiment [3], the IC50 turned out to be 1570 nM and the inhibitory constant (Ki) turned out to be 362 nM.

Regarding `COCCS(=O)(=O)Nc1cccc([C@@H](CN2CCCC2)N(C)C(=O)Cc2ccc(Cl)c(Cl)c2)c1` [compound 18, 2-(3,4-dichlorophenyl)-N-[(1S)-1-(3-{[(2-methoxyethyl)sulfonyl]amino}phenyl)-2-(pyrrolidin-1-yl)ethyl]-N-methylacetamide], the inhibition at 10 µM in experiment [1] stood at 97.8%. The same molecule yielded an EC50 in experiment [2] of 0.09 nM. In experiment [3], the IC50 was 0.57 nM and the Ki is 0.13 nM.

For `COCCOCCS(=O)(=O)Nc1cccc([C@@H](CN2CCCC2)N(C)C(=O)Cc2ccc(Cl)c(Cl)c2)c1` [compound 20, 2-(3,4-dichlorophenyl)-N-[(1S)-1-[3-({[2-(2-methoxyethoxy)ethyl]sulfonyl}amino)phenyl]-2-(pyrrolidin-1-yl)ethyl]-N-methylacetamide], the inhibition at 10 µM in experiment [1] turned out to be 97.1%. The EC50 in experiment [2] came to 0.15 nM. In experiment [3], the IC50 was 0.6 nM and the Ki was 0.14 nM.

For `CCCCOCCOCCOCCS(=O)(=O)Nc1cccc([C@@H](CN2CCCC2)N(C)C(=O)Cc2ccc(Cl)c(Cl)c2)c1` [compound 21, N-[(1S)-1-{3-[({2-[2-(2-butoxyethoxy)ethoxy]ethyl}sulfonyl)amino]phenyl}-2-(pyrrolidin-1-yl)ethyl]-2-(3,4-dichlorophenyl)-N-methylacetamide], the inhibition at 10 µM in experiment [1] is 96.5%. Further, the concentration giving a half-maximal response (EC50) in experiment [2] stood at 0.2 nM. In addition, in experiment [3], the IC50 was determined as 0.18 nM and the inhibition constant (Ki) came to 0.04 nM.

For the molecule `CN(C(=O)Cc1ccc(Cl)c(Cl)c1)[C@H](CN1CCCC1)c1cccc(NS(=O)(=O)C2CS(=O)(=O)CC2O)c1` (stereo partly drawn) [compound 22, 2-(3,4-dichlorophenyl)-N-[(1S)-1-(3-{[(4-hydroxy-1,1-dioxidotetrahydrothiophen-3-yl)sulfonyl]amino}phenyl)-2-(pyrrolidin-1-yl)ethyl]-N-methylacetamide], in experiment [1], the inhibition at 10 µM amounted to 90.2%. Moreover, a half-maximal effect in experiment [2] (EC50) was put at 0.03 nM. Also, in experiment [3], the IC50 turned out to be 0.32 nM and the inhibition constant Ki was determined as 0.07 nM.

On to `CN(C(=O)Cc1ccc(Cl)c(Cl)c1)[C@H](CN1CC[C@H](OCC(=O)O)C1)c1ccccc1` [compound 24, ({(3S)-1-[(2S)-2-{[(3,4-dichlorophenyl)acetyl](methyl)amino}-2-phenylethyl]pyrrolidin-3-yl}oxy)acetic Acid], for which, in experiment [1], the IC50 was found to be 158000 nM and the inhibition at 10 µM is -7.9%. This molecule yielded a concentration giving a half-maximal response (EC50) in experiment [2] of 265 nM. In experiment [3], the half-maximal inhibitory concentration (IC50) turned out to be 3590 nM and the Ki worked out at 468 nM.

Turning to `CN(C(=O)Cc1ccc(Cl)c(Cl)c1)[C@H](CN1CC[C@H](OCCO)C1)c1ccccc1` [compound 25, 2-(3,4-Dichlorophenyl)-N-{(1S)-2-[(3S)-3-(2-hydroxyethoxy)pyrrolidin-1-yl]-1-phenylethyl}-N-methylacetamide], in experiment [1], the IC50 worked out at 4510 nM and the inhibition at 10 µM was 57.5%. Further, a half-maximal effect in experiment [2] (EC50) was put at 4.07 nM. Besides, in experiment [3], the half-inhibitory concentration (IC50) came to 31.8 nM and the Ki stood at 4.15 nM.

As for `CN(C(=O)Cc1ccc(Cl)c(Cl)c1)[C@H](CN1CC[C@H](OCCOCCO)C1)c1ccccc1` [compound 26, 2-(3,4-Dichlorophenyl)-N-[(1S)-2-{(3S)-3-[2-(2-hydroxyethoxy)ethoxy]pyrrolidin-1-yl}-1-phenylethyl]-N-methylacetamide], in experiment [1], the concentration for half-maximal inhibition (IC50) worked out at 38700 nM and the inhibition at 10 µM amounted to 35.1%. The same molecule had a concentration for a half-maximal effect (EC50) in experiment [2] of 14.3 nM. Besides, in experiment [3], the concentration for half-maximal inhibition (IC50) came to 1130 nM and the inhibitory constant (Ki) amounted to 148 nM.

In the case of `CN(C(=O)Cc1ccc(Cl)c(Cl)c1)[C@H](CN1CC[C@H](OCCOCCOCCO)C1)c1ccccc1` [compound 27, 2-(3,4-Dichlorophenyl)-N-{(1S)-2-[(3S)-3-{2-[2-(2-hydroxyethoxy)ethoxy]ethoxy}pyrrolidin-1-yl]-1-phenylethyl}-N-methylacetamide], in experiment [1], the IC50 worked out at 9220 nM and the inhibition at 10 µM turned out to be 50.4%. This molecule displayed a 50% effective concentration (EC50) in experiment [2] of 4.38 nM. In experiment [3], the concentration for half-maximal inhibition (IC50) worked out at 106 nM and the inhibition constant Ki came out at 13.8 nM.

Turning to `COCCOCCOCCO[C@H]1CCN(C[C@H](c2ccc(C(F)(F)F)cc2)N(C)C(=O)Cc2ccc(Cl)c(Cl)c2)C1` [compound 33, 2-(3,4-Dichlorophenyl)-N-{(1S)-2-[(3S)-3-{2-[2-(2-methoxyethoxy)ethoxy]ethoxy}pyrrolidin-1-yl]-1-[4-(trifluoromethyl)phenyl]ethyl}-N-methylacetamide], in experiment [1], the inhibition at 10 µM is 84.1%. In addition, in experiment [3], the IC50 came out at 1240 nM and the inhibitory constant (Ki) came to 285 nM.

For `COCCOCCOCCOCCOCCO[C@H]1CCN(C[C@H](c2ccccc2)N(C)C(=O)Cc2ccccc2[N+](=O)[O-])C1` [compound 41, N—((S)-2-((S)-3-(2,5,8,11,14-pentaoxahexadecan-16-yloxy)pyrrolidin-1-yl)-1-phenylethyl)-N-methyl-2-(2-nitrophenyl)acetamide], in experiment [1], the inhibition at 10 µM was 20.5%. In experiment [3], the IC50 came out at 5200 nM and the Ki amounted to 1200 nM.
